Results published in patent US20050130949A1, “Cyclic polyamine compounds for cancer therapy” (priority 2000, published 2005).

Columns and labels:
DuPro cells = assay: Intracellular polyamine and analog levels by HPLC of dansylated extracts; format: cell-based, human
Method: For data shown in Tables 3a and 3b, intracellular polyamine levels were determined using a standard protocol. About 0.5-1×10^6 cells were taken from harvested samples and centrifuged at 1000 rpm at 4° C. for 5 min. The cells were washed twice with chilled Dulbecco's isotonic phosphate buffer (pH 7.4) by centrifugation at 1000 rpm at 4° C. and resuspended in the same buffer. After the final centrifugation, the supernatant was decanted, and 250 μl of 8% sulfosalycilic acid was added to the cell pellet. The cells were then sonicated, and the mixture was kept at 4° C. for at least 1 h. After centrifugation at 8,000 g for 5 min, the supernatant was removed for analysis. An appropriate volume (50-100 μl) was fluorescence-labeled by derivatizing with dansyl chloride. Labeled polyamines were loaded onto a C-18 high-performance liquid chromatography column and separated by gradient elution with acetonitrile/water at 50° C. Peaks were detected and quantitated using a Shimadzu HPLC fluorescence monitor coupled with a Spectra-Physics peak integrator. Because polyamine levels vary with environmental conditions, control cultures were sampled for each experiment.

LnCap = assay: MTT assay, cell growth inhibition, LnCap; format: cell-based; details: Homo sapiens, 144 h, 6 days with drug, read-out: ID50 LnCap
Description: (§1) To assess the utility of the subject compounds in the treatment of neoplastic cell growth, the ability of the compounds to inhibit the in vitro growth characteristics of several commonly used cancer models were studied. The subject polyamines induce cell growth inhibitions in several cultured human prostate tumor cell lines such as LnCap, DuPro, and PC-3 as determined by the accepted MTT assay (Table 2) (Hansen, M. B. et al., “Re-examination and further development of a precise and rapid dye method for measuring cell growth/cell kill,” J. Immunol. Methods (1989)119(2):203-10). […] The results with the DuPro cell line are representative of the results with human prostate cell lines.
(§2) For the data shown in Table 2, an accepted MTT assay protocol was used. A trypsinized cell suspension was diluted to seed 80 μl suspension containing 500 cells in each well of a 96 well microtiter plates and incubated overnight at 37° C. in a humidified incubator in 5% CO2. Twenty μl of appropriately diluted stock solution of each drug was added to the middle 8 columns of cell suspension in the microtiter plates. Each drug concentration was run in quadruplicate. Outer columns of the plates were used for buffer controls. Cells were incubated with the drug for 6 days at 37° C. in 5% CO2/H2O atmosphere. Twenty five μl of 5 mg/ml solution of 3-(4,5-dimethythiazol-2-yl)-2,5-diphenyl tetrazolium bromide (MTT) was added to each well and incubated for 4 hours at 37° C. in 5% CO2/H2O incubator. Cells were lysed by incubating overnight with 100 μl lysis buffer (500 ml of the lysis buffer containing: 100 g lauryl sulfate (SDS), 250 ml of N,N-dimethyl formamide in 2 ml of glacial acetic acid, pH 4.8). The color was monitored at room temperature at 570 nm in a E-max Precision Microplate Reader (Molecular Devices Corporation, Sunnyvale, Calif.) and data were analyzed using cell survival software supplied by Molecular Devices Corporation.

PC-3 = assay: MTT assay, cell growth inhibition, PC-3; format: cell-based; details: Homo sapiens, PC-3, 144 h, 6 days with drug, read-out: ID50 PC-3
Description: as §1, §2

DuPro = assay: MTT assay, cell growth inhibition, DuPro; format: cell-based; details: Homo sapiens, 144 h, 6 days with drug, read-out: ID50 DuPro
Description: as §1, §2

[1] = inorganic phosphate released from 100 μM ATP in 24 hour, 37° C.
Method: In a 96 well microtiter plate, the first two columns were routinely used for standard curve generation. For the standard curve, 40 μl of 0-70 μM phosphate buffer was used by serially diluting 1 mM NaH2PO4 solution in 1 N HCl. For ATP hydrolysis, the rest of the microtiter plate was equally divided into two sections to run two analogs at a time. Each section was divided into the appropriate number of columns to serially dilute each analog between 0-10 mM in 29 μl 2N HCl for the final concentration of 2 N HCl. Each drug concentration was run in quadruplicate. Equal volumes of 500 μM ATP solution (pH 7.5) were added to each well and the plates were incubated at 37° C. for appropriate lengths of time between 2-24 h. At the end of the incubation period, 160 μl of coloring agent (0.045% Malachite Green in water and 4.2% ammonium molybdate in 4 N HCl (3:1 v/v)) was added and the plates were incubated at 37° C. for another 30 mins. All plates were read at 595 nm using a Emax precision microplate reader (Molecular Device, San Jose, Calif.). A control plate containing analog solutions without ATP was created for each experiment. Control plate reading was subtracted from each experimental plate and all data was normalized to ATP hydrolysis at zero concentration of polyamine analog. The average and standard deviation for quadruplicate runs were plotted.

[2] = 1 μM analog, Day 4 of Treatment
[3] = 1 μM analog, Day 6 of Treatment
[4] = 2 μM analog, Day 4 of Treatment
[5] = 2 μM analog, Day 6 of Treatment
[6] = 0.5 μM analog, Day 4 of Treatment
[7] = 0.5 μM analog, Day 6 of Treatment

Compound | Analog level (uptake) (DuPro cells; [2]) | Spm (spermine) level (DuPro cells; [2]) | Analog level (uptake) (DuPro cells; [3]) | Spm (spermine) level (DuPro cells; [3]) | Analog level (uptake) (DuPro cells; [4]) | Spm (spermine) level (DuPro cells; [4]) | Analog level (uptake) (DuPro cells; [5]) | Spm (spermine) level (DuPro cells; [5]) | IC50 (LnCap) | IC50 (PC-3) | IC50 (DuPro) | Analog level (uptake) (DuPro cells; [6]) | Spm (spermine) level (DuPro cells; [6]) | Analog level (uptake) (DuPro cells; [7]) | Spm (spermine) level (DuPro cells; [7]) | further results
CCCCCCCCCCCCCC1CC(=O)NCCCNCCCCNCCCN1 (stereo not drawn) [SL-11174] | 2.788 nmoles/10^6 cells | 0.002 nmoles/10^6 cells | 17.206 nmoles/10^6 cells | 0.001 nmoles/10^6 cells | 25.074 nmoles/10^6 cells | 0.001 nmoles/10^6 cells | 21.472 nmoles/10^6 cells | 0.0021 nmoles/10^6 cells | 2200 nM | 600 nM | 830 nM | – | – | – | – | –
CCCCCCCCCCCCCC1CC(=O)NCCCNCCCNCCCN1 (stereo not drawn) [SL-11197] | – | – | – | – | 49.072 nmoles/10^6 cells | – | 42.341 nmoles/10^6 cells | – | 2600 nM | 500 nM | 580 nM | 47.566 nmoles/10^6 cells | 0.004 nmoles/10^6 cells | 35.913 nmoles/10^6 cells | 0.002 nmoles/10^6 cells | –
CCCCCCCCCCCCCC1CC(=O)NCCCNCCCCCNCCCN1 (stereo not drawn) [SL-11199] | – | – | – | – | 17.198 nmoles/10^6 cells | – | 10.241 nmoles/10^6 cells | – | 1500 nM | 1400 nM | 1200 nM | 26.959 nmoles/10^6 cells | 0.002 nmoles/10^6 cells | 26.841 nmoles/10^6 cells | 0.003 nmoles/10^6 cells | Spd (spermidine) level (DuPro cells; [7]): 0.005 nmoles/10^6 cells
CCCCCCCCCCCCCC1CC(=O)NCCCNCCCNCCCNCCCN1 (stereo not drawn) [SL-11200] | 10.089 nmoles/10^6 cells | 0.089 nmoles/10^6 cells | 46.776 nmoles/10^6 cells | 0.043 nmoles/10^6 cells | 5.989 nmoles/10^6 cells | 0.095 nmoles/10^6 cells | 49.309 nmoles/10^6 cells | 0.053 nmoles/10^6 cells | – | 1300 nM | 1400 nM | – | – | – | – | Put (putrescine) level (DuPro cells; [2]): 0.004 nmoles/10^6 cells; Spd (spermidine) level (DuPro cells; [2]): 0.029 nmoles/10^6 cells; Spd (spermidine) level (DuPro cells; [3]): 0.014 nmoles/10^6 cells; Put (putrescine) level (DuPro cells; [4]): 0.020 nmoles/10^6 cells; Spd (spermidine) level (DuPro cells; [4]): 0.027 nmoles/10^6 cells; Put (putrescine) level (DuPro cells; [5]): 0.011 nmoles/10^6 cells; Spd (spermidine) level (DuPro cells; [5]): 0.018 nmoles/10^6 cells
NCCCNCCCCNCCCN [spermine] | – | – | – | – | – | – | – | – | – | – | – | – | – | – | – | hydrolysis of ATP [1]: lack of ATP hydrolysis
